Entries after “also recorded” stand apart in the source; their conditions may differ. Like-named read-outs stand apart in the source and are kept apart here.
Columns and labels:
[1] = biological target: T1, Human monoamine oxidase A (Homo sapiens, UniProt P21397); assay: Steady-state MAO-A activity, fluorimetric kynuramine assay; type: biochemical; conditions: 40 μM kynuramine, 20 min, pH 7.1; mean ± SD (n); from semilogarithmic plot
T1 construct: purchased Sigma-Aldrich (Milan, Italy)
T1 sequence (P21397 1-527): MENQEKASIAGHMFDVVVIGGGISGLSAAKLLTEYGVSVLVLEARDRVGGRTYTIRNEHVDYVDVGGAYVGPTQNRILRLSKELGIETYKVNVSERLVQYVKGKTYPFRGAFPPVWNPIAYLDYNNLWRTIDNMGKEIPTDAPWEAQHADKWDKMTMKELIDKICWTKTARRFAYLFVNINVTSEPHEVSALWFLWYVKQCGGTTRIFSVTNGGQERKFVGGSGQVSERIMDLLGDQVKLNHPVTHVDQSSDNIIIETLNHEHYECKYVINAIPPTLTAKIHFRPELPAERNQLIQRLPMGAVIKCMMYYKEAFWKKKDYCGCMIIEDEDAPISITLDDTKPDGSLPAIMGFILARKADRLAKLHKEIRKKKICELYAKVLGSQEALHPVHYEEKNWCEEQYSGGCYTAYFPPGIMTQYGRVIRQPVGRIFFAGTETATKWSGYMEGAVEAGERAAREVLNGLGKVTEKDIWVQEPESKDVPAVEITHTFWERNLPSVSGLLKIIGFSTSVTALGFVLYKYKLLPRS
Experimental: Monoamine oxidase activity was assayed by the fluorimetric method, as previously reported. This method, based on the monoamine oxidase oxidation of its non-selective substrate kynuramine, led to the production of […], which becomes fluorescent in alkaline conditions. In steady-state measurements of MAO activity, the reaction mixture (250 µL), prepared in a 50 mM potassium phosphate buffer, pH 7.1 (buffer A), contained 40 μM kynuramine in the absence or presence of the indicated concentration of the inhibitor. The DMSO concentration carried over by the inhibitor was 0.5% (v/v), and an identical concentration of DMSO was used in the absence of the inhibitor. […] The reaction was stopped by adding 150 μL of 2 M NaOH and, after 10 min of incubation at room temperature, 240 μL of water. After centrifugation (10 min at 15,000 rpm), the fluorescence signal was measured on 500 μL of supernatant using a Cary Eclipse Spectrofluorimeter (Agilent Technologies, Milan, Italy) at room temperature (20–25 °C).

[2] = biological target: T2, Human monoamine oxidase B (Homo sapiens, UniProt P27338); assay: Steady-state MAO-B activity, fluorimetric kynuramine assay; type: biochemical; conditions: 40 μM kynuramine, 20 min, pH 7.1; mean ± SD (n); from semilogarithmic plot
T2 construct: purchased Sigma-Aldrich (Milan, Italy)
T2 sequence (P27338 1-520): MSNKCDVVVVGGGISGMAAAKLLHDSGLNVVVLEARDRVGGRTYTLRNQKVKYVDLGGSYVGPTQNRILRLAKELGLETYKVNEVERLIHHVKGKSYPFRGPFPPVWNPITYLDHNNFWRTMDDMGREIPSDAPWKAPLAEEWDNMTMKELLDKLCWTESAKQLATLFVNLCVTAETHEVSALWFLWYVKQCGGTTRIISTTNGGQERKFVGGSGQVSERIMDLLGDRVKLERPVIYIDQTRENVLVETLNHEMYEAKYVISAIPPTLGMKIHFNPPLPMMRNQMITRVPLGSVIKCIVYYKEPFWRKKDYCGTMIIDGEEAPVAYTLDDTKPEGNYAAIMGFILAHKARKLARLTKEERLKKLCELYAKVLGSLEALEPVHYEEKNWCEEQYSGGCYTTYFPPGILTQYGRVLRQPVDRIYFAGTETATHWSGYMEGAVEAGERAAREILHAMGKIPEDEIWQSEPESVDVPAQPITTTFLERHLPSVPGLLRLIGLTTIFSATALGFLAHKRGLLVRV
Experimental: (§1) Monoamine oxidase activity was assayed by the fluorimetric method, as previously reported. This method, based on the monoamine oxidase oxidation of its non-selective substrate kynuramine, led to the production of […], which becomes fluorescent in alkaline conditions. In steady-state measurements of MAO activity, the reaction mixture (250 µL), prepared in a 50 mM potassium phosphate buffer, pH 7.1 (buffer A), contained 40 μM kynuramine in the absence or presence of the indicated concentration of the inhibitor. The DMSO concentration carried over by the inhibitor was 0.5% (v/v), and an identical concentration of DMSO was used in the absence of the inhibitor. The reaction started with the addition of 3.75 μg monoamine oxidase A or B and lasted 20 min. The reaction was stopped by adding 150 μL of 2 M NaOH and, after 10 min of incubation at room temperature, 240 μL of water. After centrifugation (10 min at 15,000 rpm), the fluorescence signal was measured on 500 μL of supernatant using a Cary Eclipse Spectrofluorimeter (Agilent Technologies, Milan, Italy) at room temperature (20–25 °C). Excitation and emission wavelengths of 315 and 380 nm, respectively, were employed; slits were set to 10 nm for both the excitation and emission beams.

[3] = biological target: T3, bovine milk xanthine oxidase (Bos taurus, UniProt P80457); assay: Steady-state xanthine oxidase activity, spectrophotometric assay; type: biochemical; conditions: for IC50: read-out: IC50 XO inhibition; for Inhibition of XO activity (in words): steady-state, concentration series
T3 construct: bovine milk xanthine oxidase; purchased Sigma-Aldrich (Milan, Italy); host or cells: bovine milk
T3 sequence (P80457 whole entry): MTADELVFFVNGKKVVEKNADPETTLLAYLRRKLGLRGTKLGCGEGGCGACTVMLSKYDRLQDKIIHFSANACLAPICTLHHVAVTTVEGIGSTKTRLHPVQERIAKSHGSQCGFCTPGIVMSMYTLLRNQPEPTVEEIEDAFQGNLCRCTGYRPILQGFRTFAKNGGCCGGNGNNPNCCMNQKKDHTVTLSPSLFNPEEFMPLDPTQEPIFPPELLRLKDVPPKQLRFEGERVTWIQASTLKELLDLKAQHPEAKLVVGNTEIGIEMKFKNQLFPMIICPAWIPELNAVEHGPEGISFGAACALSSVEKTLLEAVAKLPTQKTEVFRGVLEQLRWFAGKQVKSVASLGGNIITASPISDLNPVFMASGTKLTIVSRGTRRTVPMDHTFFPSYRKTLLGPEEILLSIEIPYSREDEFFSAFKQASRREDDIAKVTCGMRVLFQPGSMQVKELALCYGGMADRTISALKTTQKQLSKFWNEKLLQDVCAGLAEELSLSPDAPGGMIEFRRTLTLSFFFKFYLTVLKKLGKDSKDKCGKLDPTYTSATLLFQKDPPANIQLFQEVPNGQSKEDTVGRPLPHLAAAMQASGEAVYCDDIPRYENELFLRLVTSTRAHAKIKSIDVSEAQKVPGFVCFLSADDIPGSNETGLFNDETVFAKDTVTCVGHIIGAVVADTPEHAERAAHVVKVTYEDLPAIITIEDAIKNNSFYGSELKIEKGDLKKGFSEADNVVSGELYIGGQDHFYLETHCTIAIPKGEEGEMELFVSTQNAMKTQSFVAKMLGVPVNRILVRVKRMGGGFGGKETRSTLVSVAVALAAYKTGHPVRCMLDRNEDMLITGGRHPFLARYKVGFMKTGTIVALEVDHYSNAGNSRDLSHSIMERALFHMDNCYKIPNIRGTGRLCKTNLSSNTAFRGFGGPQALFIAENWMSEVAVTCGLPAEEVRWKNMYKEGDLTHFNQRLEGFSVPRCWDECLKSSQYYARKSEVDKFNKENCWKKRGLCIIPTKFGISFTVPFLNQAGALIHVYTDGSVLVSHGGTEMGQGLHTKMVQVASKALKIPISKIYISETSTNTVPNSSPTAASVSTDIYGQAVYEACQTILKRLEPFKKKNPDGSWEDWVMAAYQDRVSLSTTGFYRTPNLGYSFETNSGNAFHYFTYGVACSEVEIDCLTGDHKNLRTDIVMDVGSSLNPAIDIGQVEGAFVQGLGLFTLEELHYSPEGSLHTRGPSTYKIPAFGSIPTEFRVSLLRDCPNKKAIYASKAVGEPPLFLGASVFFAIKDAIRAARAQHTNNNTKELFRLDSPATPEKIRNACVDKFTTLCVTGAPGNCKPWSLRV
Experimental: Xanthine oxidase activity was assayed through a spectrophotometric method, essentially as previously reported. […] The DMSO concentration carried over by the inhibitor was 1% (v/v), and an identical concentration of DMSO was used in the absence of the inhibitor. The reaction started with the addition of XO and was followed kinetically for up to 30 s. The initial rate of uric acid formation was expressed as ΔE/min. The effect of each inhibitor in the XO assay was evaluated, and the data were treated as previously indicated for the MAO assay, including the extrapolation of the IC50 values.

[4] = biological target: T1, Human monoamine oxidase A; assay: Kinetic analysis of MAO-A inhibition (KM, Vmax, apparent Ki); type: biochemical; conditions: for Ki: apparent Ki, mean ± SE (n); for Note: type of inhibition approached (MAO-A): for mixed inhibitors; for Inhibition Type (MAO-A): kynuramine 25–150 µM, two fixed inhibitor concentrations
Experimental: as §1
(§2) The kinetic parameters KM and Vmax for MAO and XO substrates were obtained through kinetic measurements of these activities performed at different substrate concentrations, either in the absence or in the presence of two fixed concentrations of the various inhibitors. […] Each assay was realized as reported above, and the values of the initial velocity (vi) of the reaction were evaluated under the various experimental conditions. The data of vi were nonlinearly fitted according to the Michaelis–Menten equation or analyzed by the Lineweaver–Burk equation in order to derive the kinetic parameters in the absence (KM and Vmax) or in the presence (K’M and V’max) of the inhibitor.
(§3) The inhibition power of the various compounds and their inhibition mechanisms were evaluated. […] However, an apparent inhibition constant (K’i) was calculated at each inhibitor concentration using the equations hereafter reported, depending on the type of inhibition tentatively approached from the experimental data:K’i = V’max × [I]/(Vmax − V’max)(1) K’i = KM × [I]/(K’M − KM)(2) K’i = K’M × [I]/(KM − K’M)(3)
(§4) The K’i values obtained at different inhibitor concentrations were then averaged to obtain a unique value of apparent Ki for each compound.

[5] = biological target: T2, Human monoamine oxidase B; assay: Kinetic analysis of MAO-B inhibition (KM, Vmax, apparent Ki); type: biochemical; conditions: for Ki: apparent Ki, mean ± SE (n); for Inhibition Type (MAO-B): kynuramine 25–150 µM, two fixed inhibitor concentrations; for Note: type of inhibition approached (MAO-B): for mixed inhibitors
Experimental: as §1, §2, §3, §4

[6] = tested on: XO; set-up: method as in PMID 16450295; conditions: cited from earlier work
[7] = biological target: T3, bovine milk xanthine oxidase; assay: Kinetic analysis of xanthine oxidase inhibition; type: biochemical
Experimental: Xanthine oxidase activity was assayed through a spectrophotometric method, essentially as previously reported. In particular, the oxidation of xanthine to uric acid catalyzed by XO was monitored with a Cary 100 UV-Vis Spectrophotometer (Agilent Technologies, Milan, Italy) at 25 °C, thanks to the increase in absorbance at 295 nm due to uric acid formation. In steady-state measurements of XO activity, the assay was carried out in a 500-μL final volume reaction mixture containing 100 mM phosphate buffer, pH 7.8 plus 0.1 mM EDTA (buffer B), 75 μM xanthine, and different concentrations of the various inhibitors. The DMSO concentration carried over by the inhibitor was 1% (v/v), and an identical concentration of DMSO was used in the absence of the inhibitor. The reaction started with the addition of XO and was followed kinetically for up to 30 s. The initial rate of uric acid formation was expressed as ΔE/min. The effect of each inhibitor in the XO assay was evaluated, and the data were treated as previously indicated for the MAO assay, including the extrapolation of the IC50 values.
as §2
The inhibition power of the various compounds and their inhibition mechanisms were evaluated. […]

[8] = tested on: MAO-A; set-up: method as in PMID 24140951; conditions: control of MAO-A inhibition; cited from earlier work
[9] = 75 μM xanthine, pH 7.8, 25 °C, mean ± SE (n), extrapolated from semilogarithmic plot
[10] = read-out: Ki, Calculated from KM Increase (MAO-A)
[11] = read-out: Ki, Calculated from KM Increase (MAO-B)
[12] = uncompetitive, read-out: Ki, average value from Vmax or KM decrease (MAO-B)

Compound | IC50 [1] [µM] | IC50 [2] [µM] | IC50 [3, 9] [µM] | Ki [4, 10] [µM] | Note: type of inhibition approached (MAO-A) [4] | Inhibition Type (MAO-A) [4] | Ki [5, 11] [µM] | Inhibition Type (MAO-B) [5] | Note: type of inhibition approached (MAO-B) [5] | also measured
O=C(OCCc1ccc(O)c(O)c1)C1CCN(Cc2ccccc2)CC1 [HT1, 3,4-dihydroxyphenetyl 1-benzylpiperidine-4-carboxylate] | 54.1 ± 6.9 | 125 ± 28 | 454 ± 22 | 39.7 ± 14.3 | approaching competitive | mixed | 163 ± 28 | competitive |  | 
COc1cc2c(cc1OC)C(=O)C(CC1CCN(Cc3ccccc3)CC1)C2 (stereo not drawn) [Donepezil, donepezil, reference compound] |  |  |  |  | approaching noncompetitive | mixed |  | mixed | approaching competitive | 
Oc1ncnc2[nH]ncc12 [Allopurinol, allopurinol] |  |  |  |  |  |  |  |  |  | Inhibition Type (XO) [6]: Competitive [53]; Ki [6]: 1.8 µM
CC(=O)Oc1ccc(CCOC(=O)C2CCN(Cc3ccccc3)CC2)cc1OC(C)=O [HT1a] | 50.8 ± 11 | 85 ± 33 |  | 36.5 ± 13.2 | approaching competitive | mixed | 37.9 ± 13.1 | mixed | approaching competitive | IC50 XO inhibition [3, 9]: no inhibition; Inhibition of XO activity (in words) [3]: almost ineffective; also recorded: essentially no inhibition
O=C(OCCc1ccc(O)cc1)C1CCN(Cc2ccccc2)CC1 [HT4, 4-hydroxyphenethyl 1-benzylpiperidine-4-carboxylate] | 14.3 ± 2.2 | 106 ± 22 | 605 ± 35 | 6.1 ± 1.6 | approaching competitive | mixed |  | uncompetitive |  | Ki [5, 12]: 128 ± 45 µM
CC(=O)Oc1ccc(CCOC(=O)C2CCN(Cc3ccccc3)CC2)cc1 [HT4a] | 57 ± 18.2 | 86 ± 24 | 438 ± 6 | 15.6 ± 4.2 | approaching competitive | mixed | 20.7 ± 2.8 | competitive |  | 
O=C(OCCc1cc(O)c(O)cc1[N+](=O)[O-])C1CCN(Cc2ccccc2)CC1 [HT2, 4,5-dihydroxy-2-nitrophenethyl 1-benzylpiperidine-4-carboxylate] | 322 ± 58 | 184 ± 48 | 109 ± 20 |  |  | noncompetitive |  | uncompetitive |  | Inhibition of XO activity (in words) [3]: clearly evident concentration-dependent inhibition; Ki ([4]; read-out: Ki, Calculated from Vmax Decrease (MAO-A)): 398 ± 56 µM; Ki [5, 12]: 186 ± 98 µM; Note: type of inhibition approached (XO) [7]: approaching competitive; Ki ([7]; apparent Ki, mean ± SE (n), read-out: Ki Calculated from KM Increase (XO)): 63 ± 8 µM; Inhibition Type (XO) ([7]; xanthine 4–30 µM, 75 or 100 µM HT2): mixed-type
COc1cc(CCOC(=O)C2CCN(Cc3ccccc3)CC2)ccc1O [HT3, 4-hydroxy-3-methoxyphenethyl 1-benzylpiperidine-4-carboxylate] | 23.4 ± 6.3 | 171 ± 44 | 361 ± 1 | 7.6 ± 3.7 | approaching competitive | mixed | 115 ± 50 | mixed | approaching competitive | 
COc1cc(CCOC(=O)C2CCN(Cc3ccccc3)CC2)ccc1OC(C)=O [HT3a] | 44.3 ± 14.4 | 174 ± 80 | 282 ± 37 |  |  | uncompetitive | 190 ± 37 | mixed | approaching competitive | Ki ([4]; uncompetitive, read-out: Ki, average value from Vmax or KM decrease (MAO-A)): 80.5 ± 30.4 µM
C#CCN(C)CCCOc1ccc(Cl)cc1Cl [Clorgyline, clorgyline] |  |  |  |  |  |  |  |  |  | Inhibition Type (MAO-A) [8]: Inactivator [52]
